Experimental data reported in patent US20260097133A1, “EPIGENETIC EDITING TOOL FOR TARGETING HEPATITIS B VIRUS GENE” (priority 2023, published 2026).

Tests used:
[1] = system: type D hepatitis B virus (GenBank: U95551); assay: Knockdown of HBV markers in HBV-infected primary hepatocytes (PHH), Example 2; type: cell-based; details: for level of viral antigen protein (HBsAg, HBeAg/HBcAg) after end of treatment: sgRNA: single 4 h treatment, RG7834 stopped on day 13
Text: A primary hepatocyte (PHH) cell line infected with type D hepatitis B virus (GenBank: U95551) was used in this example. […] Therefore, these four sgRNAs were used to formulate the pharmaceutical composition provided in the present application and perform epigenetic editing in primary hepatocytes to validate their inhibitory effect on HBV gene expression.
Two days after primary hepatocytes were infected with HBV, lipid nanoparticles (LNPs) (LNP preparation reference: https://doi.org/10.1038/s41586-021-03534-y) were used to deliver a composition containing mRNA encoding EPIREG (SEQ ID NO: 1191) and each sgRNA (BSG29, BSG31, BSG34, BSG35) into primary hepatocytes (administration dose was 2.5 μg/ml, the mass ratio of EPIREG to sgRNA was 1:1). The culture supernatant was collected every two days after administration to detect the expression levels of HBV surface antigen (HBsAg) and core antigen (HBcAg) secreted by the cells. Cell samples were collected until 14 days after administration, DNA and RNA were extracted from the cells, and the levels of HBV mRNA and changes in the cccDNA of the HBV gene were detected. The two groups of positive controls used Myrcludex B (WuXi AppTec, C9023GE070-1/PE0723) and RG7834 (WuXi AppTec, ET25747-14-P1), respectively. Myrcludex B could inhibit HBV infection of hepatocytes, and RG7834 could inhibit the synthesis of viral proteins. RG7834 was stopped on the day 13 of the experiment to observe the rebound of viral antigen proteins. (Specific detection methods were performed according to the following kit instructions: HBsAg ELISA kit, Antu-CL 0310; HBeAg ELISA kit, Antu-CL 0312; RNeasy 96 Kit (12), QIAGEN #74182)

[2] = system: HBx reporter cell line of type B HBV; assay: sgRNA functional screening in HBx reporter cell line (293 FT, P2A-EGFP), type B HBV; type: cell-based, type B HBV (serotype adw); details: for editing effects in the HBx reporter cell line: type B HBV, different time points after transfection of EPIREG + sgRNA
Text: (§1) 293 FT was used to construct a reporter cell line for type B, type C and type D HBV surface antigen (HBsAg), core antigen (HBcAg), X protein (HBx) and polymerase (Pol), and the schematic diagram is shown in FIG. 1A. The genomic sequence containing the CpG island and regulatory elements before the protein transcription start site was retained, and the gene sequences of the self-cleaving peptide P2A and EGFP were fused after the 38th amino acid of the HBV surface antigen (HBsAg), the 129th amino acid of the core antigen (HBcAg), the 77th amino acid of the X protein (HBx), and the 177th amino acid of the polymerase (Pol), respectively. The reporter gene was integrated into the 293 FT genome using the PiggyBac transposon system, and a stably transfected cell line was constructed. The intensity of fluorescence was used to reflect the expression level of the protein, thereby quickly performing functional validation and preliminary screening of sgRNAs near the CpG island.
The screening scheme for sgRNA functional validation using the above-mentioned reporter cell line was designed as follows (FIG. 1B): after the reporter cells were plated, the composition EPIREG described in the present application (the domain of the composition was DNMT3A-hDNMT3L-xten80-ZIM3-xten80-dCas9, with an amino acid sequence as set forth in SEQ ID NO: 1194, and a nucleic acid sequence as set forth in SEQ ID NO: 1192 (CDS sequence) and 1193 (plasmid sequence)) containing different sgRNAs was delivered into the cells by transfection, and the two carried red fluorescence and blue fluorescence, respectively. Flow cytometry was used to sort red fluorescent and blue fluorescent double-positive cell populations, which were cultured for a long time. Flow cytometric analysis was performed every week to detect changes in the fluorescence intensity of the reporter cells, which could reflect changes in protein expression levels after epigenetic editing.

[3] = system: HBx reporter cell line of type C HBV; assay: sgRNA functional screening in HBx reporter cell line (293 FT, P2A-EGFP), type C HBV; type: cell-based, type C HBV (serotype adr)
Text: as §1, with “island. […]” for “island.”

[4] = system: type D hepatitis B virus (GenBank: U95551); assay: Candidate sgRNA effect validation in HBV-infected primary hepatocytes (PHH), Example 4; type: cell-based; details: 14 days after infection
Text: A primary hepatocyte (PHH) cell line (WuXi AppTec, M00995-P) infected with type D hepatitis B virus (GenBank: U95551) was used in this validation experiment. Based on the screening results of the three libraries in Example 3 and combined with factors such as conservation, the 20 sgRNAs shown in the table below were selected to prepare the pharmaceutical composition provided in the present application and perform epigenetic editing in the primary hepatocytes to validate the inhibitory effect of the screened candidate sgRNAs on HBV gene expression.
Two days after primary hepatocytes were infected with HBV, lipid nanoparticles (LNPs) (LNP preparation reference: https://doi.org/10.1038/s41586-021-03534-y) were used to deliver the composition comprising the mRNA encoding EPIREG (sequence: SEQ ID NO: 1191) and each of the above-mentioned sgRNAs into primary hepatocytes (administration dose was 2.5 μg/ml, the mass ratio of EPIREG to sgRNA was 1:1). […] The supernatant of the culture medium was collected every two days after administration in each group, and the expression levels of HBV surface antigen (HBsAg), core antigen (HBcAg/HBeAg) and HBV DNA secreted by the cells were detected until 14 days after infection. Cell samples were collected, DNA and RNA in the cells were extracted, and the level of HBV mRNA was detected. […]

[5] = system: HBx reporter cell line of type D HBV; assay: sgRNA functional screening in HBx reporter cell line (293 FT, P2A-EGFP), type D HBV; type: cell-based, type D HBV (serotype ayw)
Text: as §1, with “island. […]” for “island.”

[6] = system: HBV genome (type A, GenBank: AF305422.1); assay: Knockdown of HBV markers in transgenic HBV mice; type: in vivo, mice (C57BL/6-HBV); details: after single administration
Text: Transgenic HBV mice (Beijing Vitalstar Biotechnology Co., Ltd., C57BL/6-HBV, subsequent feeding and testing were completed by Beijing Vitalstar) were used in this validation experiment. The genome of this strain of mice was inserted with a 1.28-fold length HBV genome (type A, GenBank: AF305422.1). […] Therefore, this sgRNA was used to prepare the pharmaceutical composition provided in the present application and perform epigenetic editing in transgenic HBV mice to validate the inhibitory effect of this drug on the expression of integrated HBV genes in an in vivo model.
The composition comprising the mRNA encoding EPIREG (sequence: SEQ ID NO: 1191) and sgRNA numbered D99 (BSG35) (mass ratio of mRNA to sgRNA of 1:1) was delivered to transgenic HBV mice (at a dose of 10 mg/kg) by means of tail vein injection of lipid nanoparticles (LNPs) (LNP preparation reference: https://doi.org/10.1038/s41586-021-03534-y). PBS (200 ul) was injected as a negative control, and the antisense oligonucleotide (ASO) drug Bepirovirsen (GSK3228836, dose of 200 mg/kg) was used as a positive control, which could target all HBV RNAs and thus reduce the expression of HBV antigens. After administration, blood was collected regularly in each group to detect the levels of HBV surface antigen (HBsAg) and core antigen (HBcAg/HBeAg) secreted in serum, and the level of HBV DNA was detected by qPCR. […]

[7] = LNP with EPIREG mRNA + sgRNA 1:1, 2.5 μg/ml, 2-10 days after administration

## COCCCOc1cc2c(cc1OC)-c1cc(=O)c(C(=O)O)cn1[C@H](C(C)C)C2 [RG7834, reference compound]
[1]
  level of viral antigen protein (HBsAg, HBeAg/HBcAg) after end of treatment: clear rebound (increasing) trend

## AGGAGTTCCGCAGTATGGAT [BSG35]
[2]; type B HBV HBx reporter cell line
  inhibitory effects on HBx expression: nearly the best inhibitory effects
[2]
  editing effects in the HBx reporter cell line: extremely high editing effects
[3]
  inhibitory effects on HBx expression: nearly the best inhibitory effects
[1]
  inhibitory effect compared with Myrcludex B and RG7834: close to that of the two reference inhibitors
  level of viral antigen protein (HBsAg, HBeAg/HBcAg) after end of treatment: remained stable at a low level
[1]; 2.5 μg/ml
  inhibitory effect on HBsAg and HBeAg/HBcAg, comparison among sgRNAs: best effect
[1]; 2.5 μg/ml, 2-10 days after administration
  expression levels of HBsAg and HBeAg/HBcAg in the supernatant (change): different degrees of decrease
[1]; [7]
  reduction of expression level of HBeAg/HBcAg in the supernatant: about 80%
  reduction of expression level of HBsAg in the supernatant: about 80%
[1]; after single administration
  time at which expression levels of HBsAg and HBeAg/HBcAg became stable: basically stable on the day 4 after administration
[4]
  inhibition level, comparison among the 20 sgRNAs: highest inhibition level
[5]
  inhibitory effects on HBx expression: nearly the best inhibitory effects

## BSG30: sgRNA tested in the HBx reporter cell line of type B HBV (guide CCTGCTGCGAGCAAAACAAG; listed as DNA, chemistry not given here)
[2]
  editing effects in the HBx reporter cell line: extremely high editing effects

## BSG43: sgRNA tested in the HBx reporter cell line of type B HBV (guide TCCTCTACCGATCCATACTG; listed as DNA, chemistry not given here)
[2]
  editing effects in the HBx reporter cell line: extremely high editing effects

## BSG50: sgRNA tested in the HBx reporter cell line of type B HBV (guide GATCGGTAGAGGAGACACAA; listed as DNA, chemistry not given here)
[2]
  editing effects in the HBx reporter cell line: extremely high editing effects

## Bepirovirsen [ASO]
[6]
  persistence of effect on HBV markers: gradually returned to their original levels
